Read-outs that look alike come from different tables or passages of the source.
What was measured:
[1] = Lipophilicity determination using RP-HPLC (capacity factor, log k); assay type: physicochemical; conditions: C18, MeOH 55%/H2O 45%
From the text: Reversed phase high performance liquid chromatography (RP-HPLC) methods have become popular and are widely used for lipophilicity measurements. The general procedure is the measurement of the directly accessible retention time under isocratic conditions using varying amounts of methanol as an organic modifier in the mobile phase using RP columns and calculating the logarithm of the capacity factors (log k). Log k is the logarithm of the capacity factors in chromatographic approaches that is related to the partitioning of a compound between a mobile and a (pseudo-)stationary phase. Log k is used as the lipophilicity index converted to log P scale.
A Waters Alliance 2695 XE HPLC separation module and a Waters Photodiode Array Detector 2996 (Waters Corp., Milford, MA, USA) were used. A Symmetry® C18 5 μm, 4.6 × 250 mm, Part No. WAT054275 (Waters Corp.) chromatographic column was used. The HPLC separation process was monitored using Empower™ 2 Chromatography Data Software, Waters 2009 (Waters Corp.). A mixture of MeOH p.a. (55%) and H2O-HPLC-Mili-Q Grade (45%) was used as a mobile phase. The total flow of the column was 0.9 mL/min, injection volume 30 μL, column temperature 30 °C and sample temperature 10 °C. A detection wavelength of 210 nm was chosen. A KI methanolic solution was used for the determination of dead time (tD). Retention times (tR) were measured in minutes. The capacity factors k were calculated using the Empower™ 2 Chromatography Data Software according to the formula k = (tR − tD)/tD, where tR is the retention time of the solute, whereas tD denotes the dead time obtained using an unretained analyte. Log k, calculated from the capacity factor k, is used as the lipophilicity index converted to log P scale.

[2] = test system: Candida glabrata 20/I; experiment: In vitro antifungal susceptibility, broth microdilution; assay type: cell-based; conditions: Nakaseomyces glabratus, read-out: MIC (IC80) CG
[3] = test system: Trichophyton mentagrophytes 445; experiment: as above; assay type: cell-based; conditions: read-out: MIC (IC50) TM
[4] = test system: Candida albicans ATCC 44859; experiment: as above; assay type: cell-based; conditions: read-out: MIC (IC80) CA
[5] = test system: HCT-116 human colon cancer cells (p53 wild type); parameters: method as in PMID 22858101; conditions: footnote 3: anticancer activity described elsewhere ref [34],[44]; cited from earlier work
[6] = test system: Trichosporon beigelii 1188; experiment: In vitro antifungal susceptibility, broth microdilution; assay type: cell-based; conditions: read-out: MIC (IC80) TB
From the text: The broth microdilution test was used for the assessment of the in vitro antifungal activity of the synthesized compounds against Candida albicans ATCC 44859 (CA), Candida tropicalis 156 (CT), Candida krusei ATCC 6258 (CK), Candida glabrata 20/I (CG), Trichosporon beigelii 1188 (TB), Aspergillus fumigatus 231 (AF), Absidia corymbifera 272 (AC), and Trichophyton mentagrophytes 445 (TM). Fluconazole (FLU) was used as the standard since it is a clinically used antimycotic drug. The procedure was performed using a twofold dilution of the compounds in RPMI 1640 (Sevapharma a.s., Prague, Czech Republic) buffered to pH 7.0 with […] of 3-morpholino-propane-1-sulfonic acid (MOPS, Sigma, Prague, Czech Republic). The final concentrations of the compounds ranged from 500 to 0.975 μmol/L. Drug-free controls were included. The determination of minimum inhibitory concentration (MIC) was performed according to the Clinical and Laboratory Standards Institute (CLSI, formerly NCCLS) reference protocol M27-A2 for yeasts (IC80 value) and M38-A for moulds (IC50 value). IC80 and IC50 were defined as an 80% resp. 50% or greater reduction in growth in comparison with the control. The values of MICs were determined after 24 and 48 h of static incubation at 35 °C. The final MICs for T. mentagrophytes, were determined after 72 and 120 h of incubation.

[7] = test system: Candida tropicalis 156; experiment: as above; assay type: cell-based; conditions: read-out: MIC (IC80) CT
[8] = test system: Aspergillus fumigatus 231; experiment: as above; assay type: cell-based; conditions: read-out: MIC (IC50) AF
[9] = test system: Candida krusei ATCC 6258; experiment: as above; assay type: cell-based; conditions: Pichia kudriavzevii, read-out: MIC (IC80) CK
[10] = test system: Absidia corymbifera 272; experiment: as above; assay type: cell-based; conditions: read-out: MIC (IC50) AC
[11] = test system: HCT-116 human colon cancer cells (p53 wild type); experiment: In vitro antiproliferative activity, MTS assay; assay type: cell-based; conditions: HCT-116, 72 h incubation, MTS, read-out: HCT-116 IC50
Protocol: The antiproliferative activity of all of the compounds was examined against the human colon cancer (HCT-116) cell line using an MTS assay. The HCT-116 p53 wild type cell line was chosen on the basis of our former experience and some results on the activity of quinoline-based thiosemicarbazones that was published recently. Namely, compounds 4a–l have been tested previously for their wide-ranging anticancer activity. The antiproliferative activity of the compounds evaluated was assessed using Doxorubicin as a reference compound. In general, quinoline-based thiosemicarbazones 4 seem to have a much better anticancer activity than halogenophenyl compounds 3. Thus, the quinoline nucleus can be defined as being crucial for antiproliferative activity. A more detailed analysis of the anticancer activity of quinoline-based thiosemicarbazone is available. […] Nevertheless, some more general conclusions can be drawn from the gathered data. […] The free amino group or substitution pattern with small substituents such as methyl or ethyl are favorable for activity. According to our former results the chelating ability of the compounds may be one of the prerequisites of the antiproliferative activity. In this study we have measured the UV-VIS spectra of the compounds in presence of various concentration of Fe^3+ cations to observe its chelating potency (supplementary material). […] However as 4j give also two points at 330 and 385 nm, iron chelating ability should be regarded only as one of the factor influencing the biological activity.
The human colon cancer cell line HCT116 with the wild type p53 gene (p53^+/+) were obtained from Maria Sklodowska-Curie Memorial Cancer Center in Gliwice, Poland. Briefly, the cells were seeded in 96-well plates (3 × 10^3 cells/well) in cellular proliferation assays 24 h before the addition of the chelators. The assay was performed following a 72 h incubation with varying concentrations of the agents. Each compound was tested in triplicate in a single experiment with each experiment being repeated 3 times. After 72 h incubation with the compounds being investigated, 20 µL of MTS solution was added to each well (100 µL) and incubated for 1 h at 37 °C. The optical densities of the samples were analyzed at 490 nm. Results were expressed as a percentage of the control. The inhibitory concentration (IC50) was defined as the compound concentration necessary to reduce the absorbance to 50% of the untreated control.

[12] = test system: photosynthetic electron transport (PET) in spinach chloroplasts; experiment: Inhibition of photosynthetic electron transport (PET) in spinach chloroplasts; assay type: biochemical, Spinacia oleracea L.; conditions: DCPIP photoreduction
Protocol: Chloroplasts were prepared from spinach (Spinacia oleracea L.) according to Masarovicova and Kralova. The inhibition of the photosynthetic electron transport (PET) in spinach chloroplasts was determined spectrophotometrically (Genesys 6, Thermo Fisher Scientific, Waltham, MA, USA) using an artificial electron acceptor 2,6-dichlorophenol-indophenol (DCIPP) according to Kralova et al. and the rate of photosynthetic electron transport was monitored as a photoreduction of DCPIP. The measurements were carried out in a phosphate buffer (0.02 mol/L, pH 7.2) containing sucrose (0.4 mol/L), MgCl2 (0.005 mol/L) and NaCl (0.015 mol/L). The chlorophyll content was 30 mg/L in these experiments and the samples were irradiated (~100 W/m^2 with 10 cm distance) with a halogen lamp (250 W) using a 4 cm water filter to prevent warming of the samples (suspension temperature 22 °C). The compounds studied were dissolved in DMSO due to their limited water solubility. […] The inhibitory efficiency of the compounds studied was expressed by IC50 values, i.e., by the molar concentration of the compounds that caused a 50% decrease in the oxygen evolution rate relative to the untreated control.

[13] = 24 h and 48 h, only one value presented (inactive)
[14] = Trichophyton mentagrophytes, 445, 72 h and 120 h, only one value presented (inactive)
[15] = ATCC44859, 24 h and 48 h, only one value presented (inactive)
[16] = Trichosporon beigelii, 1188, 24 h and 48 h, only one value presented (inactive)
[17] = Candida tropicalis, 156, 24 h and 48 h, only one value presented (inactive)
[18] = Aspergillus fumigatus, 231, 24 h and 48 h, only one value presented (inactive)
[19] = ATCC6258, 24 h and 48 h, only one value presented (inactive)
[20] = Lichtheimia corymbifera, 272, 24 h and 48 h, only one value presented (inactive)
[21] = Trichophyton mentagrophytes, 445, 72 h
[22] = Trichophyton mentagrophytes, 445, 120 h
[23] = Trichosporon beigelii, 1188, 24 h
[24] = Trichosporon beigelii, 1188, 48 h
[25] = Aspergillus fumigatus, 231, 24 h
[26] = Aspergillus fumigatus, 231, 48 h
[27] = Lichtheimia corymbifera, 272, 24 h
[28] = Lichtheimia corymbifera, 272, 48 h

NC(=S)N/N=C/c1cccc(Cl)c1Cl [Compound 3a, (E)-2-(2,3-Dichlorobenzylidene)hydrazinecarbothioamide]
> 125 µM: MIC [2, 13] | IC50 [3, 14] | MIC [4, 15] | MIC [6, 16] | MIC [7, 17] | IC50 [8, 18] | MIC [9, 19] | IC50 [10, 20]
0.6892: log k [1]
41.5 ± 1.7 µM: IC50 [5]

S=C(N/N=C/c1ccc(Cl)c(Cl)c1)Nc1ccccc1 [Compound 3j, (E)-2-(3,4-Dichlorobenzylidene)-N-phenylhydrazinecarbothioamide]
> 60 µM: IC50 [11]
426 µM: IC50 [12]
> 125 µM: MIC [2, 13] | IC50 [3, 14] | MIC [4, 15] | MIC [6, 16] | MIC [7, 17] | IC50 [8, 18] | MIC [9, 19] | IC50 [10, 20]
0.9774: log k [1]

CNC(=S)N/N=C/c1cccc(Cl)c1Cl [Compound 3b, (E)-2-(2,3-Dichlorobenzylidene)-N-methylhydrazinecarbothioamide]
170 µM: IC50 [12]
> 60 µM: IC50 [11]
> 500 µM: MIC [2, 13] | IC50 [3, 14] | MIC [4, 15] | MIC [6, 16] | MIC [7, 17] | IC50 [8, 18] | MIC [9, 19] | IC50 [10, 20]
0.7357: log k [1]

CCNC(=S)N/N=C/c1cccc(Cl)c1Cl [Compound 3d, (E)-2-(2,3-Dichlorobenzylidene)-N-ethylhydrazinecarbothioamide]
0.7958: log k [1]
58.5 ± 0.2 µM: IC50 [5]
> 500 µM: MIC [2, 13] | IC50 [3, 14] | MIC [4, 15] | MIC [6, 16] | MIC [7, 17] | IC50 [8, 18] | MIC [9, 19] | IC50 [10, 20]

CNC(=S)NN=Cc1c(O)ccc2cccnc12 [Compound 4i]
> 25 µM: IC50 [5]
> 500 µM: MIC ([2]; 24 h) | MIC ([2]; 48 h) | IC50 [3, 21] | IC50 [3, 22] | MIC ([4]; ATCC44859, 24 h) | MIC ([4]; ATCC44859, 48 h) | MIC [6, 23] | MIC [6, 24] | MIC ([7]; Candida tropicalis, 156, 24 h) | MIC ([7]; Candida tropicalis, 156, 48 h) | IC50 [8, 25] | IC50 [8, 26] | MIC ([9]; ATCC6258, 24 h) | MIC ([9]; ATCC6258, 48 h) | IC50 [10, 27] | IC50 [10, 28]
0.6193: log k [1]

CCNC(=S)NN=Cc1c(O)ccc2cccnc12 [Compound 4k]
> 500 µM: MIC ([4]; ATCC44859, 24 h) | MIC ([4]; ATCC44859, 48 h) | MIC [6, 23] | MIC [6, 24] | MIC ([7]; Candida tropicalis, 156, 24 h) | MIC ([7]; Candida tropicalis, 156, 48 h) | IC50 [8, 25] | IC50 [8, 26] | MIC ([9]; ATCC6258, 24 h) | MIC ([9]; ATCC6258, 48 h) | IC50 [10, 27] | IC50 [10, 28]
> 25 µM: IC50 [5]
62.5 µM: MIC ([2]; 24 h) | IC50 [3, 21] | IC50 [3, 22]
500 µM: MIC ([2]; 48 h)
0.6539: log k [1]

CNC(=S)N/N=C/c1ccc(Cl)c(Cl)c1 [Compound 3g, (E)-2-(3,4-Dichlorobenzylidene)-N-methylhydrazinecarbothioamide]
> 125 µM: MIC [2, 13] | IC50 [3, 14] | MIC [4, 15] | MIC [6, 16] | MIC [7, 17] | IC50 [8, 18] | MIC [9, 19] | IC50 [10, 20]
136 µM: IC50 [12]
0.7563: log k [1]
55.5 ± 6.2 µM: IC50 [11]

S=C(N/N=C/c1cccc(Cl)c1Cl)Nc1ccccc1 [Compound 3e, (E)-2-(2,3-dichlorobenzylidene)-N-phenylhydrazinecarbothioamide]
0.9230: log k [1]
> 125 µM: MIC [2, 13] | IC50 [3, 14] | MIC [4, 15] | MIC [6, 16] | MIC [7, 17] | IC50 [8, 18] | MIC [9, 19] | IC50 [10, 20]
> 60 µM: IC50 [11]
499 µM: IC50 [12]

Source: paper PMC6268061, “Investigation of the Biological Properties of (Hetero)Aromatic Thiosemicarbazones” (Molecules, 2012)
